Laboratory results from the NIST ThermoML archive (doi:10.1021/je800048f).
± gives the expanded uncertainty stated by the source.

Settings: 298.15 K, 101.33 kPa, Liquid; for viscosity: Capillary tube (Ostwald / Ubbelohde) method

mass density | viscosity | Compound
797.77 ± 0.62 kg/m3 | 3.353 ± 0.027 mPa·s | CC(C)CO [2-methyl-1-propanol]
780.78 ± 0.65 kg/m3 | 4.384 ± 0.038 mPa·s | CC(C)(C)O [2-methylpropan-2-ol]
655.07 ± 0.98 kg/m3 | 0.2949 ± 0.0048 mPa·s | CCCCCC [hexane]

Compound | mass density | viscosity
CCCCCl [1-chlorobutane] | 880.69 ± 0.61 kg/m3 | 0.4235 ± 0.0054 mPa·s
